Results from the supplement of paper PMC10307832.

What was measured:
Assay in all cases: relative viability (nuclei count vs DMSO), 5 days (fraction); higher = more cells survive
AZ628 + Pictilisib = compound: CC1=C(C=C(C=C1)NC(=O)C2=CC(=CC=C2)C(C)(C)C#N)NC3=CC4=C(C=C3)N=CN(C4=O)C [AZ628] + CS(=O)(=O)N1CCN(Cc2cc3nc(-c4cccc5[nH]ncc45)nc(N4CCOCC4)c3s2)CC1 [Pictilisib] (partner 1 µM)
Outline: (§1)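 A single step with final 0.05% Triton X-100, 1% formaldehyde and 1 ug/ml Hoechst fixed the cells and stained nuclei 5 days after treatment. Lung cancer cell lines in 1536-well plates had been treated by pin tool the day after seeding with one drug alone or a fixed anchor-drug dose plus five library-drug doses (not always all listed) in √10 steps, and nuclei were counted on 4× images. Relative viability is the ratio of nuclei in treated wells to nuclei in vehicle wells, taken as the median of duplicate plates.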

QS11 + Navitoclax = compound: C1CC2=C(C1)C=C(C=C2)OC3=NC(=C4C(=N3)N(C=N4)CC5=CC=C(C=C5)C6=CC=CC=C6)N[C@@H](CC7=CC=CC=C7)CO [QS11] + CC1(C)CCC(c2ccc(Cl)cc2)=C(CN2CCN(c3ccc(C(=O)NS(=O)(=O)c4ccc(N[C@H](CCN5CCOCC5)CSc5ccccc5)c(S(=O)(=O)C(F)(F)F)c4)cc3)CC2)C1 [Navitoclax] (partner 0.5 µM)
Outline: as §1

AZ628 + Luminespib = compound: CC1=C(C=C(C=C1)NC(=O)C2=CC(=CC=C2)C(C)(C)C#N)NC3=CC4=C(C=C3)N=CN(C4=O)C [AZ628] + CCNC(=O)c1noc(-c2cc(C(C)C)c(O)cc2O)c1-c1ccc(CN2CCOCC2)cc1 [Luminespib] (partner 0.01 µM)
Outline: as §1

Row | Cell Line | relative viability (AZ628 + Pictilisib; first compound 0.08 µM) | relative viability (AZ628 + Pictilisib; first compound 0.253 µM) | relative viability (AZ628 + Pictilisib; first compound 0.8 µM) | relative viability (AZ628 + Pictilisib; first compound 2.53 µM) | relative viability (AZ628 + Pictilisib; first compound 8 µM) | relative viability (QS11 + Navitoclax; first compound 0.08 µM) | relative viability (QS11 + Navitoclax; first compound 0.253 µM) | relative viability (QS11 + Navitoclax; first compound 2.53 µM) | relative viability (QS11 + Navitoclax; first compound 8 µM) | relative viability (AZ628 + Luminespib; first compound 0.08 µM) | relative viability (AZ628 + Luminespib; first compound 0.253 µM) | relative viability (AZ628 + Luminespib; first compound 0.8 µM) | relative viability (AZ628 + Luminespib; first compound 2.53 µM) | relative viability (AZ628 + Luminespib; first compound 8 µM) | relative viability (QS11 + Navitoclax; first compound 0.8 µM)
1 | H3255 | 0.457 | 0.499 | 0.463 | 0.398 | 0.225 | 0.552 | 0.587 | 0.55 | 0.704 | 1.03 | 0.891 | 0.929 | 1 | 0.556 | –
2 | LOU-NH91 | 0.582 | 0.491 | 0.492 | 0.501 | 0.452 | 0.626 | 0.572 | 0.657 | 0.723 | 0.299 | 0.396 | 0.332 | 0.308 | 0.293 | –
3 | NCI-H2126 | 0.533 | 0.549 | 0.537 | 0.513 | 0.457 | 0.867 | 0.796 | 0.823 | 0.62 | 1 | 0.902 | 0.968 | 0.933 | 0.97 | 0.67
4 | PC-14 | 0.617 | 0.627 | 0.738 | 0.808 | 0.237 | 1.1 | 1.02 | 1.03 | 0.921 | 0.197 | 0.132 | 0.146 | 0.167 | 0.202 | 0.95
5 | EMC-BAC-2 | 0.511 | 0.476 | 0.455 | 0.459 | 0.466 | 1.14 | 1.28 | 1.12 | 0.654 | 1.22 | 1.03 | 1.16 | 1.07 | 1.12 | 0.896
6 | HCC-78 | 0.373 | 0.21 | 0.211 | 0.228 | 0.231 | 0.802 | 0.797 | 0.841 | 0.818 | – | – | – | – | – | 0.756
7 | SK-LU-1 | 0.429 | 0.375 | 0.534 | 0.467 | 0.373 | 0.795 | 0.871 | 0.487 | 0.479 | – | 0.181 | 0.231 | 0.211 | 0.169 | 0.646
8 | ABC-1 | 0.764 | 0.828 | 0.677 | 0.643 | 0.486 | – | – | – | – | 0.717 | 0.699 | 0.929 | 0.838 | 0.536 | –
9 | LK-2 | 0.577 | 0.824 | 0.443 | 0.481 | 0.311 | 0.763 | 0.888 | 0.762 | 1.11 | 0.224 | 0.205 | 0.206 | 0.187 | 0.16 | 0.975
10 | NCI-H23 | 0.407 | 0.319 | 0.261 | 0.312 | 0.246 | 0.818 | 0.863 | 0.75 | 0.692 | 0.201 | 0.222 | 0.224 | 0.216 | 0.201 | 0.872
11 | NCI-H2228 | 0.397 | 0.32 | 0.368 | 0.329 | 0.264 | 0.852 | 1.1 | 0.756 | 1.29 | 0.119 | 0.133 | 0.18 | 0.195 | 0.14 | 0.483
12 | NCI-H441 | 0.417 | 0.45 | 0.444 | 0.403 | 0.283 | 0.452 | 1.04 | 0.723 | 0.529 | 0.33 | 0.342 | 0.345 | 0.469 | 0.241 | 0.673
13 | NCI-H460 | 0.323 | 0.25 | 0.254 | 0.269 | 0.127 | 1.1 | 1.25 | 1.06 | 0.308 | 0.0338 | 0.033 | 0.0403 | 0.0274 | 0.0264 | 0.882
14 | LU99A | 0.274 | 0.306 | 0.362 | 0.331 | 0.205 | 0.867 | 0.841 | 0.847 | 0.592 | 0.306 | 0.283 | 0.23 | 0.207 | 0.183 | 0.937
15 | NCI-H358 | 0.341 | 0.289 | 0.286 | 0.308 | 0.349 | – | – | – | – | 0.285 | 0.279 | 0.273 | 0.311 | 0.167 | –
16 | IA-LM | 0.352 | 0.231 | 0.155 | 0.145 | 0.115 | 0.762 | 0.828 | 0.5 | 0.614 | – | – | – | – | – | 0.69
17 | UMC-11 | 0.976 | 0.805 | 0.845 | 0.752 | 0.76 | 0.293 | 0.308 | 0.424 | 0.54 | 1.16 | 0.999 | 0.973 | 0.98 | 1.17 | 0.298
18 | LXF-289 | 0.779 | 0.712 | 0.754 | 0.654 | 0.401 | 0.98 | 0.948 | 0.859 | 0.619 | 0.672 | 0.67 | 0.681 | 0.653 | 0.544 | 0.715
19 | NCI-H647 | 0.385 | 0.163 | 0.313 | 0.247 | 0.27 | 1.28 | 1.12 | 1.13 | 1.1 | 0.155 | 0.132 | 0.221 | 0.186 | 0.186 | 1.07
20 | NCI-H1651 | 0.698 | 0.685 | 0.587 | 0.537 | 0.599 | 1.13 | 0.998 | 0.98 | 0.839 | 0.92 | 0.825 | 0.919 | 0.955 | 0.61 | 0.936
21 | NCI-H838 | 0.523 | 0.559 | 0.356 | 0.403 | 0.365 | 1.11 | 1.1 | 1.2 | 1.02 | 0.305 | 0.318 | 0.336 | 0.386 | 0.246 | 0.755
22 | NCI-H661 | 0.401 | 0.312 | 0.302 | 0.353 | 0.331 | – | – | – | – | 1.03 | 0.941 | 0.912 | 0.961 | 0.731 | –
23 | NCI-H1734 | 0.432 | 0.359 | 0.351 | 0.367 | 0.306 | 0.803 | 0.96 | 0.568 | 0.663 | 0.224 | 0.19 | 0.153 | 0.172 | 0.142 | 0.751
